Data on 22 compounds can be found in patent publication US20220324835A1 (Nurix Therapeutics, Inc., priority 2018, published 2022).

One assay deals with T-cell. Description: IL-2 secretion from T-cells stimulated with anti-CD3 antibody alone (Biological Example 2). The format is cell-based, human. The settings on record: T-cell, fold change over baseline, primary human total T-cells, read-out: IL-2 secretion Anti-CD3 stimulation; for fold induction at 1 µM: 1 μM Cbl-b inhibitor; for fold induction at 8 µM: 8 μM Cbl-b inhibitor.

In a further assay the target is Cbl-b (Homo sapiens, UniProt Q13191). Description: Cbl-b inhibition assay (Cbl-b activity assay, FRET, Biological Example 1; 100 mM NaCl, 60 nM Src kinase). The format is biochemical. The settings on record: upper bound stated in text lists; read-out: IC50 values in the Cbl-b inhibition assay of Biological Example 1. Put shortly: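 Inhibitor activity is measured as reduced terbium-to-fluorescein FRET between streptavidin-terbium on biotinylated Cbl-b and Bodipy-fluorescein ubiquitin carried by an irreversible UbcH5B-Ub conjugate, binding of which depends on Src phosphorylation of Cbl-b.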

Another assay concerns the target Cbl-b (residues 36-427) (Homo sapiens, UniProt Q13191). Description: Cbl-b binding assay (SPR, Biacore T200). The settings on record: 20° C., 1:1 binding model. Put shortly:
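NeutrAvidin capture chip, 20° C; 50 s injections at 50 μl/min, 90-180 s dissociation; 0.3 M NaCl regeneration. Asterisked column: 50 mM NaCl buffer and 30 nM Src kinase in place of 100 mM NaCl and 60 nM Src kinase. 1:1 fit.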

Chain of Cbl-b (residues 36-427) (Q13191 36-427): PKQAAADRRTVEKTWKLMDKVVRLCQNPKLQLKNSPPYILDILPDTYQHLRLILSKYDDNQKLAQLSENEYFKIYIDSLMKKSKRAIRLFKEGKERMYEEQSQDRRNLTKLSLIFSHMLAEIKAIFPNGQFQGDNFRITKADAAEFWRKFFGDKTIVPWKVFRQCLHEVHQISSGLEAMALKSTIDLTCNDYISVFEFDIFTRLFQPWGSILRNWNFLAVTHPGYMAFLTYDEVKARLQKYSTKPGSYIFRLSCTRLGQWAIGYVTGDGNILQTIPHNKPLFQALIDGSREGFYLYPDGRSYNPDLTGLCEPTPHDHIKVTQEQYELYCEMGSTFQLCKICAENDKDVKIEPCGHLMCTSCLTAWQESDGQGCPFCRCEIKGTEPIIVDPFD
Chain of Cbl-b (Q13191 36-427): as above

Broadly, the IC50 is the midpoint of a concentration-inhibition curve. The Kd is the constant that tells how readily two partners part at equilibrium. Read a low Kd as higher affinity. For the compound `C[C@H](Cc1nncn1C)c1cccc(NC(=O)c2cc(O[C@@H]3CC[C@@H](O)C3)ccn2)c1` (relative stereo) [Compound 205, trans-4-(3-hydroxycyclopentyloxy)-N-(3-((R)-1-(4-methyl-4H-1,2,4-triazol-3-yl)propan-2-yl)phenyl)picolinamide], in the assay on T-cell, the fold induction at 1 µM lay in the range of 0.051 to 0.1 and the fold induction at 8 µM lay in the range of 0.101 to 0.15. Further, the half-maximal inhibitory concentration (IC50) on Cbl-b is at most 100 nM. At Cbl-b (residues 36-427), the Kd is 100 to 300 nM.

Take `Cc1ccc(C(=O)Nc2cccc([C@H](C)Sc3nncn3C)c2)nc1C1CC1` [Compound 54, (S)-6-cyclopropyl-5-methyl-N-(3-(1-((4-methyl-4H-1,2,4-triazol-3-yl)thio)ethyl)phenyl)picolinamide]: in the assay with T-cell, the fold induction at 1 µM is below 0.05 and the fold induction at 8 µM fell in the range of 0.151 to 0.2. Moreover, the half-inhibitory concentration (IC50) on Cbl-b is at most 100 nM. Besides, at Cbl-b (residues 36-427), the Kd lay in the range of 100 to 300 nM.

On to `Cc1cc(C(=O)Nc2cccc([C@H](C)Sc3nncn3C)c2)nc(C(F)(F)F)c1` [Compound 65, (S)-4-methyl-N-(3-(1-((4-methyl-4H-1,2,4-triazol-3-yl)thio)ethyl)phenyl)-6-(trifluoromethyl)picolinamide], for which, in the assay on T-cell, the fold induction at 1 µM was below 0.05 and the fold induction at 8 µM is 0.101 to 0.15. Further, at Cbl-b, the concentration for half-maximal inhibition (IC50) is at most 100 nM. On Cbl-b (residues 36-427), this compound came in with a dissociation constant (Kd) of 100 to 300 nM.

For the compound `C[C@H](Sc1nncn1C)c1cccc(NC(=O)c2cc(C3CC3)cc(C(F)(F)F)n2)c1` [Compound 67, (S)-4-cyclopropyl-N-(3-(1-((4-methyl-4H-1,2,4-triazol-3-yl)thio)ethyl)phenyl)-6-(trifluoromethyl)picolinamide], in the assay with T-cell, the fold induction at 1 µM is below 0.05 and the fold induction at 8 µM was in the range of 0.101 to 0.15. At Cbl-b, the 50% inhibitory concentration (IC50) was at most 100 nM. On Cbl-b (residues 36-427), this compound yielded a Kd of 100 to 300 nM.

Take `C[C@H](Sc1nncn1C)c1cccc(NC(=O)c2cccc(C3CC3)n2)c1` [Compound 72, (S)-6-cyclopropyl-N-(3-(1-((4-methyl-4H-1,2,4-triazol-3-yl)thio)ethyl)phenyl)picolinamide]: in the assay with T-cell, the fold induction at 1 µM lay in the range of 0.051 to 0.1 and the fold induction at 8 µM fell in the range of 0.151 to 0.2. At Cbl-b, the IC50 was at most 100 nM. Moreover, the dissociation constant (Kd) on Cbl-b (residues 36-427) was in the range of 100 to 300 nM.

On to `C[C@H](Sc1nncn1C)c1cccc(NC(=O)c2ccnc(C3CC3)n2)c1` [Compound 76, 2-cyclopropyl-A-[3-[(1S)-1-[(4-methyl-1,2,4-triazol-3-yl)sulfanyl]ethyl]phenyl]pyrimidine-4-carboxamide], for which, in the assay on T-cell, the fold induction at 1 µM is below 0.05 and the fold induction at 8 µM was 0.051 to 0.1. Besides, the IC50 on Cbl-b is at most 100 nM. Besides, at Cbl-b (residues 36-427), the dissociation constant Kd is 100 to 300 nM.

Take `C[C@H](Sc1nncn1C)c1cccc(NC(=O)c2ccc(CO)c(C3CC3)n2)c1` [Compound 89, 6-cyclopropyl-5-(hydroxymethyl)-N-[3-[(1S)-1-[(4-methyl-1,2,4-triazol-3-yl)sulfanyl]ethyl]phenyl]pyridine-2-carboxamide]: in the assay with T-cell, the fold induction at 1 µM is below 0.05 and the fold induction at 8 µM lay within 0.101 to 0.15. Moreover, the concentration for half-maximal inhibition (IC50) on Cbl-b was at most 100 nM. Besides, the Kd at Cbl-b (residues 36-427) lay within 100 to 300 nM.

On to `C[C@H](Sc1nncn1C)c1cccc(NC(=O)c2ccc(F)c(C3CC3)n2)c1` [Compound 91, 6-Cyclopropyl-5-fluoro-N-[3-[(1S)-1-[(4-methyl-1,2,4-triazol-3-yl)sulfanyl]ethyl]phenyl]pyridine-2-carboxamide], for which, in the assay with T-cell, the fold induction at 1 µM was below 0.05 and the fold induction at 8 µM is 0.101 to 0.15. Further, the IC50 on Cbl-b was at most 100 nM. This compound also gave a dissociation constant (Kd) at Cbl-b (residues 36-427) of 100 to 300 nM.

For `C[C@H](Sc1nncn1C)c1cccc(NC(=O)c2ccc(C#N)c(C3CC3)n2)c1` [Compound 92, 5-cyano-6-cyclopropyl-N-[3-[(1S)-1-[(4-methyl-1,2,4-triazol-3-yl)sulfanyl]ethyl]phenyl]pyridine-2-carboxamide], in the assay with T-cell, the fold induction at 1 µM is below 0.05 and the fold induction at 8 µM lay in the range of 0.101 to 0.15. The half-maximal inhibitory concentration (IC50) at Cbl-b was at most 100 nM. On Cbl-b (residues 36-427), the Kd was 100 to 300 nM.

For the compound `COc1ccc(C(=O)Nc2cccc([C@H](C)Sc3nncn3C)c2)nc1C1CC1` [Compound 93, 6-cyclopropyl-5-methoxy-N-[3-[(1S)-1-[(4-methyl-1,2,4-triazol-3-yl)sulfanyl]ethyl]phenyl]pyridine-2-carboxamide], in the assay on T-cell, the fold induction at 1 µM is below 0.05 and the fold induction at 8 µM lay in the range of 0.101 to 0.15. In addition, the half-inhibitory concentration (IC50) at Cbl-b was at most 100 nM. Besides, on Cbl-b (residues 36-427), the dissociation constant (Kd) lay within 100 to 300 nM.

`C[C@H](Cc1nncn1C)c1cccc(NC(=O)c2cccc(C(F)(F)F)n2)c1` [Compound 183a, (R)-N-(3-(1-(4-methyl-4H-1,2,4-triazol-3-yl)propan-2-yl)phenyl)-6-(trifluoromethyl)picolinamide]: in the assay on T-cell, the fold induction at 1 µM is above 0.201 and the fold induction at 8 µM is above 0.201. The IC50 on Cbl-b was at most 100 nM. The equilibrium dissociation constant (Kd) on Cbl-b (residues 36-427) is 100 to 300 nM.

As to `C[C@H](Cc1nncn1C)c1cccc(NC(=O)c2cc(C3CC3)cc(C(F)(F)F)n2)c1` [Compound 191, (R)-4-cyclopropyl-N-(3-(1-(4-methyl-4H-1,2,4-triazol-3-yl)propan-2-yl)phenyl)-6-(trifluoromethyl)picolinamide], in the assay with T-cell, the fold induction at 1 µM is above 0.201 and the fold induction at 8 µM is above 0.201. In addition, the IC50 at Cbl-b is at most 100 nM. The compound also displayed a dissociation constant Kd at Cbl-b (residues 36-427) below 100 nM.

For `C[C@H](Cc1nncn1C)c1cccc(NC(=O)c2cc(C3CC3)nc(C3CC3)n2)c1` [Compound 193, (R)-2,6-dicyclopropyl-N-(3-(1-(4-methyl-4H-1,2,4-triazol-3-yl)propan-2-yl)phenyl)pyrimidine-4-carboxamide], in the assay on T-cell, the fold induction at 1 µM was above 0.201 and the fold induction at 8 µM is above 0.201. Moreover, the IC50 at Cbl-b is at most 100 nM. At Cbl-b (residues 36-427), the Kd was below 100 nM.

Turning to `Cc1cc(C(=O)Nc2cccc([C@H](C)Cc3nncn3C)c2)nc(C(F)(F)F)n1` [Compound 194, (R)-6-methyl-N-(3-(1-(4-methyl-4H-1,2,4-triazol-3-yl)propan-2-yl)phenyl)-2-(trifluoromethyl)pyrimidine-4-carboxamide], in the assay on T-cell, the fold induction at 1 µM is above 0.201 and the fold induction at 8 µM is above 0.201. Moreover, the concentration for half-maximal inhibition (IC50) on Cbl-b is at most 100 nM. The dissociation constant (Kd) on Cbl-b (residues 36-427) is 100 to 300 nM.

For the compound `Cn1cnnc1C(F)(F)[C@](C)(F)c1cccc(N2Cc3c(cc(C(=O)N4CC[C@H](O)C4)cc3C(F)(F)F)C2=O)c1` [Compound 438, 6-((S)-3-hydroxypyrrolidine-1-carbonyl)-2-(3-((R)-1,1,2-trifluoro-1-(4-methyl-4H-1,2,4-triazol-3-yl)propan-2-yl)phenyl)-4-(trifluoromethyl)isoindolin-1-one], the IC50 at Cbl-b was at most 100 nM. Further, the dissociation constant Kd at Cbl-b (residues 36-427) lay within 100 to 300 nM.

For `Cn1cnnc1C(F)(F)[C@](C)(F)c1cccc(N2Cc3c(cc(CN4CC[C@H](F)C4)cc3C(F)(F)F)C2=O)c1` [Compound 447, 6-(((S)-3-fluoropyrrolidin-1-yl)methyl)-2-(3-((R)-1,1,2-trifluoro-1-(4-methyl-4H-1,2,4-triazol-3-yl)propan-2-yl)phenyl)-4-(trifluoromethyl)isoindolin-1-one], on Cbl-b, the half-maximal inhibitory concentration (IC50) was at most 100 nM. The Kd on Cbl-b (residues 36-427) was below 100 nM.

Take `Cn1cnnc1C(F)(F)[C@](C)(F)c1cccc(N2Cc3c(cc(CN4CCC(F)(F)C4)cc3C(F)(F)F)C2=O)c1` [Compound 448, (R)-6-((3,3-difluoropyrrolidin-1-yl)methyl)-2-(3-(1,1,2-trifluoro-1-(4-methyl-4H-1,2,4-triazol-3-yl)propan-2-yl)phenyl)-4-(trifluoromethyl)isoindolin-1-one]: on Cbl-b, the IC50 is at most 100 nM. In addition, the equilibrium dissociation constant (Kd) on Cbl-b (residues 36-427) is below 100 nM.

For `Cn1cnnc1C(F)(F)[C@](C)(F)c1cccc(N2Cc3c(cc(CN4CC[C@@H](F)C4)cc3C(F)(F)F)C2=O)c1` [Compound 450], the IC50 on Cbl-b was at most 100 nM. At Cbl-b (residues 36-427), the Kd was below 100 nM.

As for `COC1CN(Cc2cc3c(c(C(F)(F)F)c2)CN(c2cccc([C@@](C)(F)C(F)(F)c4nncn4C)c2)C3=O)C1` [Compound 452, (R)-6-((3-methoxyazetidin-1-yl)methyl)-2-(3-(1,1,2-trifluoro-1-(4-methyl-4H-1,2,4-triazol-3-yl)propan-2-yl)phenyl)-4-(trifluoromethyl)isoindolin-1-one], the IC50 at Cbl-b was at most 100 nM. Also, the Kd at Cbl-b (residues 36-427) was below 100 nM.

For the compound `C[C@H](Cc1nncn1C)c1cccc(NC(=O)c2cc3cc(N4CCNCC4)ccc3cn2)c1` [Compound 472, N-{3-[(2R)-1-(4-methyl-4H-1,2,4-triazol-3-yl)propan-2-yl]phenyl}-6-(piperazin-1-yl)isoquinoline-3-carboxamide], the concentration for half-maximal inhibition (IC50) on Cbl-b is at most 100 nM. Also, the dissociation constant Kd at Cbl-b (residues 36-427) was below 100 nM.

Regarding `Cn1cnnc1CC1(c2cccc(NC(=O)c3cc(CN4CC[C@H](F)C4)cc(C4CC4)n3)c2)COC1` [Compound 496, 6-cyclopropyl-4-{[(3S)-3-fluoropyrrolidin-1-yl]methyl}-N-(3-{3-[(4-methyl-1,2,4-triazol-3-yl)methyl]oxetan-3-yl}phenyl)pyridine-2-carboxamide], the half-inhibitory concentration (IC50) at Cbl-b is at most 100 nM. In addition, the Kd on Cbl-b (residues 36-427) is below 100 nM.

Take `C[C@@H](c1cc2c(c(C(F)(F)F)c1)CN(c1cccc(C3(Cc4nncn4C)COC3)c1)C2=O)N1CCC(C)(F)CC1` [Example 553a, (S)-6-(1-(4-fluoro-4-methylpiperidin-1-yl)ethyl)-2-(3-(3-((4-methyl-4H-1,2,4-triazol-3-yl)methyl)oxetan-3-yl)phenyl)-4-(trifluoromethyl)isoindolin-1-one]: the IC50 at Cbl-b was at most 100 nM. Besides, at Cbl-b (residues 36-427), the Kd is below 100 nM.
